Test results taken from US12685312B2, “Sulfonamide apyrase inhibitors” (Texas Crop Science, Inc., priority 2022, dated 2026).

Tested on: apyrase
Assay: Screen for apyrase inhibitors (Method 1, in vitro phosphate-release absorbance assay)
Format: biochemical
Conditions: inhibitor conc at 1 mM stock, 1 hr room temperature, absorbance 630 nm; rounded average of two assay results
How it was run: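 Phosphate-release colorimetric assay (Windsor method) in 60 mM Hepes, 3 mM MgCl2, 3 mM CaCl2, 3 mM ATP, pH 6.5, with compound or DMSO control added. Released phosphate developed with ammonium molybdate and ascorbic acid/TCA, then stopped with citrate/acetic acid.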

| % Inhibition of Apyrase | SMILES |
| --- | --- |
| 53% | Cc1ccc(NC(=O)c2sccc2C)c(S(=O)(=O)Nc2ccc(I)cc2)c1 [I-823, N-(2-(N-(4-iodophenyl)sulfamoyl)-4-methylphenyl)-3-methylthiophene-2-carboxamide] |
| 59% | O=C(Nc1ccc(S(=O)(=O)Nc2cccc(C(F)(F)F)c2)cc1)c1ccc(F)cc1Cl [I-977, 2-chloro-4-fluoro-N-(4-(N-(3-(trifluoromethyl)phenyl)sulfamoyl)phenyl) benzamide] |
| 43% | O=C(Nc1ccc(NS(=O)(=O)c2ccc3c(c2)OCCO3)cc1)c1cccc(N2CCCC2=O)c1 [I-886, N-(4-((2,3-dihydrobenzo[b][1,4]dioxine)-6-sulfonamido)phenyl)-3-(2-oxopyrrolidin-1-yl)benzamide] |
| 71% | O=C(c1ccc(S(=O)(=O)Nc2ccccc2)cc1)N1CCc2ccccc21 [I-860, 4-(indoline-1-carbonyl)-N-phenylbenzenesulfonamide] |
| 59% | O=C(c1ccc(NS(=O)(=O)c2ccc3c(c2)OCCO3)cc1)N1CCCc2ccccc21 [I-912, N-(4-(1,2,3,4-tetrahydroquinoline-1-carbonyl)phenyl)-2,3-dihydrobenzo[b][1,4]dioxine-6-sulfonamide] |
| 14% | O=C(Nc1ccccc1OC(F)F)c1ccc(NS(=O)(=O)c2ccccc2)cc1 [I-960, N-(2-(difluoromethoxy)phenyl)-4-(phenylsulfonamido)benzamide] |
| 55% | COc1ccc(C(=O)Nc2ccc(S(=O)(=O)Nc3ccc(Cl)cc3)cc2)cc1 [I-988, N-(4-(N-(4-chlorophenyl)sulfamoyl)phenyl)-4-methoxybenzamide] |
| 51% | COc1ccc2c(c1)CCCN2C(=O)c1ccc(S(=O)(=O)Nc2ccccc2F)cc1 [I-883, N-(2-fluorophenyl)-4-(6-methoxy-1,2,3,4-tetrahydroquinoline-1-carbonyl)benzenesulfonamide] |
| 28% | O=C(Nc1ccc(S(=O)(=O)Nc2cccc(C(F)(F)F)c2)cc1)c1ccccc1 [I-1000, N-(4-(N-(3-(trifluoromethyl)phenyl)sulfamoyl)phenyl) benzamide] |
| 33% | O=C(Nc1cccc(OC(F)F)c1)c1cccc(S(=O)(=O)Nc2cccc(C(F)(F)F)c2)c1 [I-1007, N-(3-(difluoromethoxy)phenyl)-3-(N-(3-(trifluoromethyl)phenyl)sulfamoyl)benzamide] |
| 6% | COc1ccccc1NS(=O)(=O)c1cccc(NC(=O)c2cccnc2OC)c1 [I-770, 2-methoxy-N-(3-(N-(2-methoxyphenyl)sulfamoyl)phenyl) nicotinamide] |
| 5% | O=C1Cc2cccc(NS(=O)(=O)c3ccc(Cl)cc3)c2N1 [I-844, 4-chloro-N-(2-oxoindolin-7-yl)benzenesulfonamide] |
| 5% | O=C1CCCN1c1ccccc1NS(=O)(=O)c1ccc(Br)cc1 [I-842, 4-bromo-N-(2-(2-oxopyrrolidin-1-yl)phenyl)benzenesulfonamide] |
| 60% | COc1ccc(NS(=O)(=O)c2cc(C)ccc2NC(=O)c2cc(C)oc2C)cc1 [I-818, N-(2-(N-(4-methoxyphenyl)sulfamoyl)-4-methylphenyl)-2,5-dimethylfuran-3-carboxamide] |
| 36% | O=C(Nc1ccc(OC(F)F)cc1)c1ccc(NS(=O)(=O)c2ccccc2)cc1 [I-952, N-(4-(difluoromethoxy)phenyl)-4-(phenylsulfonamido)benzamide] |
| 59% | CC1Cc2ccccc2N1C(=O)c1ccc(NS(=O)(=O)c2ccccc2)cc1 (centres unmarked) [I-911, N-(4-(2-methylindoline-1-carbonyl)phenyl)benzenesulfonamide] |
| 48% | Cc1ccc(NS(=O)(=O)c2ccc(C(=O)N3CCc4cc(S(N)(=O)=O)ccc43)cc2)cc1 [I-884, 1-(4-(N-(p-tolyl)sulfamoyl)benzoyl)indoline-5-sulfonamide] |

The remaining lines, values behind:

| SMILES | % Inhibition of Apyrase |
| --- | --- |
| O=C(Nc1ccc(OC(F)F)cc1)c1ccccc1S(=O)(=O)Nc1cccc(C(F)(F)F)c1 [I-1, N-(4-(difluoromethoxy)phenyl)-2-(N-(3-(trifluoromethyl)phenyl)sulfamoyl)benzamide] | 84% |
| COc1ccc(NC(=O)c2ccc(S(=O)(=O)Nc3cccc(C(F)(F)F)c3)cc2)cc1OC [I-403, N-(3,4-dimethoxyphenyl)-4-(N-(3-(trifluoromethyl)phenyl)sulfamoyl)benzamide] | 38% |
| N#Cc1cc(C(=O)Nc2cccc(NS(=O)(=O)c3ccccc3)c2)ccc1Cl [I-210, 4-chloro-3-cyano-N-(3-(phenylsulfonamido)phenyl)benzamide] | 73% |
| Cc1cc(C)cc(NC(=O)c2cccc(S(=O)(=O)Nc3ccc4c(c3)OCO4)c2)c1 [I-179, 3-(N-(benzo[d][1,3]dioxol-5-yl)sulfamoyl)-N-(3,5-dimethylphenyl)benzamide] | 72% |
| CN(c1ccccc1)S(=O)(=O)c1cccc(NC(=O)c2ccc(=O)[nH]n2)c1 [I-755, N-(3-(N-methyl-N-phenylsulfamoyl)phenyl)-6-oxo-1,6-dihydropyridazine-3-carboxamide] | 33% |
| O=C(Nc1ccccc1OC(F)F)c1ccc(S(=O)(=O)Nc2ccccc2)cc1 [I-405, N-(2-(difluoromethoxy)phenyl)-4-(N-phenylsulfamoyl)benzamide] | 35% |
| COc1ccccc1C(=O)Nc1cccc(S(=O)(=O)Nc2ccc(Br)cc2)c1 [I-331, N-(3-(N-(4-bromophenyl)sulfamoyl)phenyl)-2-methoxybenzamide] | 64% |
| O=C(Nc1ccc2c(c1)OCO2)c1ccc(Cl)c(S(=O)(=O)N2CCc3ccccc32)c1 [I-562, N-(benzo[d][1,3]dioxol-5-yl)-4-chloro-3-(indolin-1-ylsulfonyl)benzamide] | 51% |
| Cn1cc(C(=O)Nc2cccc(S(=O)(=O)Nc3ccc(Br)cc3)c2)cn1 [I-335, N-(3-(N-(4-bromophenyl)sulfamoyl)phenyl)-1-methyl-1H-pyrazole-4-carboxamide] | 30% |
| COc1ccc(Cl)cc1NS(=O)(=O)c1cccc(C(=O)N2CCc3ccccc32)c1 [I-520, N-(5-chloro-2-methoxyphenyl)-3-(indoline-1-carbonyl)benzenesulfonamide] | 56% |
| CCOc1ccc(N(C)S(=O)(=O)c2ccc(C)c(C(=O)N3c4ccccc4CC3C)c2)cc1 (centres unmarked) [I-564, N-(4-ethoxyphenyl)-N,4-dimethyl-3-(2-methylindoline-1-carbonyl)benzenesulfonamide] | 51% |
| Cc1cccc(NS(=O)(=O)c2cc(C(=O)N3CCCc4ccccc43)ccc2C)c1 [I-438, 2-methyl-5-(1,2,3,4-tetrahydroquinoline-1-carbonyl)-N-(m-tolyl)benzenesulfonamide] | 63% |
| Cc1cccc(NC(=O)c2ccc(Cl)c(S(=O)(=O)N3CCc4ccccc43)c2)c1 [I-555, 4-chloro-3-(indolin-1-ylsulfonyl)-N-(m-tolyl)benzamide] | 52% |
| COc1ccccc1NC(=O)c1cccc(S(=O)(=O)N2CCc3ccccc32)c1 [I-467, 3-(indolin-1-ylsulfonyl)-N-(2-methoxyphenyl)benzamide] | 59% |
| CN(c1ccccc1)S(=O)(=O)c1cccc(NC(=O)c2ccc(Br)s2)c1 [I-706, 5-bromo-N-(3-(N-methyl-N-phenylsulfamoyl)phenyl)thiophene-2-carboxamide] | 62% |
| CC1Cc2ccccc2N1S(=O)(=O)c1cccc(C(=O)Nc2ccc(Oc3ccccc3)cc2)c1 (centres unmarked) [I-483, 3-((2-methylindolin-1-yl)sulfonyl)-N-(4-phenoxyphenyl)benzamide] | 58% |
| COc1ccccc1NS(=O)(=O)c1cccc(NC(=O)c2cncc(Br)c2)c1 [I-766, 5-bromo-N-(3-(N-(2-methoxyphenyl)sulfamoyl)phenyl) nicotinamide] | 14% |
| CCOc1ccc(NC(=O)c2cccc(S(=O)(=O)Nc3ccc4c(c3)OCO4)c2)cc1OC [I-586, 3-(N-(benzo[d][1,3]dioxol-5-yl)sulfamoyl)-N-(4-ethoxy-3-methoxyphenyl)benzamide] | 44% |
| COc1cc(C(=O)Nc2cccc(S(=O)(=O)N(C)c3ccccc3)c2)ncn1 [I-753, 6-methoxy-N-(3-(N-methyl-N-phenylsulfamoyl)phenyl)pyrimidine-4-carboxamide] | 37% |
| O=C(Nc1cccc([N+](=O)[O-])c1)c1cc(S(=O)(=O)Nc2cccc(F)c2)ccc1Cl [I-11, 2-chloro-5-(N-(3-fluorophenyl)sulfamoyl)-N-(3-nitrophenyl)benzamide] | 60% |
| COc1ccc(S(=O)(=O)N2CCc3ccccc32)cc1C(=O)Nc1ccc(C)c(C)c1 [I-593, N-(3,4-dimethylphenyl)-5-(indolin-1-ylsulfonyl)-2-methoxybenzamide] | 38% |
| CCOc1ccc(S(=O)(=O)Nc2cccc(C(=O)Nc3nnc[nH]3)c2)cc1 [I-671, 3-((4-ethoxyphenyl)sulfonamido)-N-(4H-1,2,4-triazol-3-yl)benzamide] | 2% |
| O=C(Nc1ccccc1Cl)c1cccc(S(=O)(=O)N2CCc3ccccc32)c1 [I-604, N-(2-chlorophenyl)-3-(indolin-1-ylsulfonyl)benzamide] | 23% |
| CN(c1ccccc1)S(=O)(=O)c1cc(C(=O)N2CCc3cc([N+](=O)[O-])ccc32)ccc1Cl [I-477, 2-chloro-N-methyl-5-(5-nitroindoline-1-carbonyl)-N-phenylbenzenesulfonamide] | 58% |
